Assay results published in BindingDB's records for doi:10.1021/jm00083a023 (Warner-Lambert, 1992).

Assay: Compound was evaluated for the inhibition of serum-opsonized zymosan stimulated myeloperoxidase release from human neutrophil

Work on `COc1ccc2sc(C(=O)Nc3nnn[nH]3)c(OC(C)C)c2c1` yielded an IC50 of 7.5 µM.
